Data reported in US20240279602A1, “METHOD FOR PRODUCING CEREBRAL CORTICAL CELL PREPARATION DERIVED FROM HUMAN PLURIPOTENT STEM CELLS” (Kyoto University, priority 2021, published 2024).

Tested on: human iPS cells (S2WCB1 strain, S2WCB3 strain)
Test: Efficiency of cerebral organoid formation after step (1) maintenance culture and induction of differentiation
Format: cell-based
Design: Efficiency of cerebral organoid formation (%): concentration or dose not given beside the values
Conditions: for Efficiency (%) of cerebral organoid formation: -Day 1 to Day 0, evaluated Day 35
Protocol: Step (1) and step (2) were performed according to a scheme illustrated in FIG. 3 or FIG. 5. Maintenance culture of human iPS cells (S2WCB1 strain, S2WCB3 strain) was performed in StemFit culture medium on a 6-well plate coated with iMatrix-511 (feeder-free).
The culture medium was exchanged with: • (1) a culture medium obtained by adding 5 μM SB431542 to StemFit culture medium without solution C (i.e., a bFGF-free culture medium) (FIG. 3); or • (2) Essential 6 culture medium (i.e., a bFGF-free, TGFβ-free culture medium) (FIG. 5), • and adhesion culture was performed for 1 day.
Step (2a) Induction of differentiation into neural cells was performed in a serum-free culture medium by using a method by Sakaguchi et al. (Stem Cell Reports, 13:458-473, 2019. doi: 10.1016/j.stemcr.2019.05.029.). Specifically, human iPS cells cultured in step (1) were dispersed into single cells by enzymatic treatment. The human iPS cells dispersed into single cells were seeded on a non-cell-adhesive 96-well culture plate (PrimeSurface 96 V-bottom plate, manufactured by Sumitomo Bakelite Co., Ltd.) (9,000 cells/well/100 μL), and subjected to suspension culture with Glasgow MEM (GMEM; Thermo Fisher Scientific Inc.) culture medium supplemented with 0.1 mM non-essential amino acids, 1 mM pyruvate, 0.1 mM 2-mercaptoethanol, 20% (v/v) KnockOut (TM) serum replacement, 100 U/mL penicillin, and 100 μg/ml streptomycin (hereinafter, also referred to as 20GMK) with further addition of 5 μM SB431542 (TGFβ signaling inhibitor; Tocris Bioscience) and 3 μM IWR1e (Wnt signaling inhibitor; Calbiochem), at 37° C. under 5% CO2 for 18 days. Culture medium exchange was performed every 3 days. Y-27632 was added to reach 50 μM on Day 0, and not added in the subsequent culture medium exchanges. Through the culture, cell aggregates were eventually obtained.
Step (2b) On Day 18, the cell aggregates obtained were transferred into a 90-mm dish, and subjected to shaking culture with an Orbital Shaker in DMEM/F12/GlutaMAX culture medium supplemented with 1×N2 supplement (Thermo Fisher Scientific Inc.), a chemically defined lipid concentrate (Invitrogen), 0.25 mg/mL fungizone (Gibco), 1% penicillin/streptomycin, and 0.1% amphotericin B at 37° C. under 20% 02 and 5% CO2 from Day 35 to Day 42. Culture medium exchange was performed every 3 to 4 days.
Efficiency (%) of cerebral organoid formation was calculated by the following expression.
In step (1) of the scheme in FIG. 3, culture was performed with a culture medium supplemented with any additive below during a period of −Day 1 to Day 0, induction of differentiation into neural cells was performed on Day 0, and the efficiencies of cerebral organoid formation were evaluated on Day 35. […] In FIG. 7, “None” indicates the absence of an additive.
Under the experimental system with (1) “bFGF-free-and-SB431542-supplemented culture medium”, which was obtained by adding 5 μM SB431542 to StemFit culture medium without solution C, in Example 1, periods for culture of iPS cells with “bFGF-free-and-SB431542-supplemented culture medium” were set as in a table below.

[1] = step (1) in bFGF-containing culture medium (StemFit with solution C)
[2] = step (1) in bFGF-free culture medium (StemFit without solution C)

Compound | structure of cell culture on Day 35 (immunostaining) (additive in bFGF-free culture medium in step (1) (Exp. F)) | Efficiency (%) of cerebral organoid formation [1] | Efficiency (%) of cerebral organoid formation [2] | Efficiency of cerebral organoid formation (%) (step (1) in Essential 6 (E6) culture medium supplemented with SB431542) | Efficiency (%) of cerebral organoid formation (step (1) in bFGF-containing culture medium (StemFit with solution C), listed as SB-431542) [%]
O=C(Nc1cccc2cccnc12)c1ccc(N2C(=O)[C@@H]3[C@H](C2=O)[C@@H]2C=C[C@H]3C2)cc1 [IWR1e, 4-[(3aR,4S,7R,7aS)-1,3,3a,4,7,7a-hexahydro-1,3-dioxo-4,7-methano-2H-isoindol-2-yl]-N-8-quinolinyl-benzamide] | no cerebral cortex-like structure was formed | <1% | <5% |  | 
c1ccc2c(-c3cnn4cc(-c5ccc(N6CCNCC6)cc5)cnc34)ccnc2c1 [LDN-193189] |  |  | <5% |  | 
NC(=O)c1ccc(-c2nc(-c3ccc4c(c3)OCO4)c(-c3ccccn3)[nH]2)cc1 [SB431542, 4-[4-(1,3-benzodioxol-5-yl)-5-(2-pyridinyl)-1H-imidazol-2-yl]-benzamide] |  | less than 5% | high efficiency | 56.9 | <5
